In patent US20220281848A1, “PYRAZOLE-SUBSTITUTED PYRROLIDINONES AS HERBICIDES” (FMC Corporation, priority 2019, published 2022):

System: plants
Experiment: Test D pre-emergence, other plants of Tables D1 and D3
Type: in vivo
Conditions: preemergent, 20 DAA
Description: A formulation containing 50 g/L of the test chemical was prepared by dissolving the active ingredient in a mixture of organic solvents and emulsifier, details of which are provided in the table. This formulation was then mixed with a small, variable amount of acetone to aid dissolution, before addition of a 0.2% v/v aqueous solution of an adjuvant, as the aqueous diluent, to form an aqueous spray solution which contains a predetermined concentration of the active ingredient.
This aqueous spray solution was then sprayed onto plants including maize and wheat that had been seed treated with a herbicide safener, after one day's cultivation (for pre-emergence) or after about 12 days' cultivation (for post-emergence). The plants were grown from seeds sown in standard soil, placed in a glasshouse under controlled conditions (at 24/18° C. or 20/16° C., day/night; 16 h light; 65% humidity). After spray application the plants were then grown in a glasshouse under the same conditions and watered twice daily. After 15 d for post-emergence and 20 DAA for pre-emergence the test was evaluated (100=total damage to plant; 0=no damage to plant).

For CN1CC(c2cc(C(F)(F)F)n(C)n2)C(C(=O)Nc2ccc(F)cc2F)C1=O (racemic) [Compound 6], the “damage to plant (100=total damage to plant; 0=no damage to plant), ABUTH” value (rate 15) was 0, the “damage to plant (100=total damage to plant; 0=no damage to plant), ABUTH” value (rate 30) was 0 and the “damage to plant (100=total damage to plant; 0=no damage to plant), ABUTH” value (rate 60) was 0. For the same molecule, the “damage to plant (100=total damage to plant; 0=no damage to plant), ABUTH” value (rate 130) was 0, the “damage to plant (100=total damage to plant; 0=no damage to plant), ABUTH” value (rate 250) was 0 and the “damage to plant (100=total damage to plant; 0=no damage to plant), ABUTH” value (rate 500) was 0. For the same molecule, the “damage to plant (100=total damage to plant; 0=no damage to plant), AMARE” value (rate 15) was 0, the “damage to plant (100=total damage to plant; 0=no damage to plant), AMARE” value (rate 30) was 0 and the “damage to plant (100=total damage to plant; 0=no damage to plant), AMARE” value (rate 60) was 0. For the same molecule, the “damage to plant (100=total damage to plant; 0=no damage to plant), AMARE” value (rate 130) was 0, the “damage to plant (100=total damage to plant; 0=no damage to plant), AMARE” value (rate 250) was 0 and the “damage to plant (100=total damage to plant; 0=no damage to plant), AMARE” value (rate 500) was 0. For the same molecule, the “damage to plant (100=total damage to plant; 0=no damage to plant), BIDPI” value (rate 15) was 0, the “damage to plant (100=total damage to plant; 0=no damage to plant), BIDPI” value (rate 30) was 0 and the “damage to plant (100=total damage to plant; 0=no damage to plant), BIDPI” value (rate 60) was 0. The “damage to plant (100=total damage to plant; 0=no damage to plant), BIDPI” value (rate 130) was 0, the “damage to plant (100=total damage to plant; 0=no damage to plant), BIDPI” value (rate 250) was 0 and the “damage to plant (100=total damage to plant; 0=no damage to plant), BIDPI” value (rate 500) was 0. The “damage to plant (100=total damage to plant; 0=no damage to plant), BRAPL” value (rate 15) was 0, the “damage to plant (100=total damage to plant; 0=no damage to plant), BRAPL” value (rate 30) was 50 and the “damage to plant (100=total damage to plant; 0=no damage to plant), BRAPL” value (rate 60) was 60. The “damage to plant (100=total damage to plant; 0=no damage to plant), BRAPL” value (rate 130) was 80, the “damage to plant (100=total damage to plant; 0=no damage to plant), BRAPL” value (rate 250) was 80 and the “damage to plant (100=total damage to plant; 0=no damage to plant), BRAPL” value (rate 500) was 90. The “damage to plant (100=total damage to plant; 0=no damage to plant), CYPES” value (rate 15) was 0, the “damage to plant (100=total damage to plant; 0=no damage to plant), CYPES” value (rate 30) was 0 and the “damage to plant (100=total damage to plant; 0=no damage to plant), CYPES” value (rate 60) was 0. The “damage to plant (100=total damage to plant; 0=no damage to plant), CYPES” value (rate 130) was 0, the “damage to plant (100=total damage to plant; 0=no damage to plant), CYPES” value (rate 250) was 10 and the “damage to plant (100=total damage to plant; 0=no damage to plant), CYPES” value (rate 500) was 80. For the same molecule, the “damage to plant (100=total damage to plant; 0=no damage to plant), DIGSA” value (rate 15) was 0, the “damage to plant (100=total damage to plant; 0=no damage to plant), DIGSA” value (rate 30) was 30 and the “damage to plant (100=total damage to plant; 0=no damage to plant), DIGSA” value (rate 60) was 90. The “damage to plant (100=total damage to plant; 0=no damage to plant), DIGSA” value (rate 130) was 90, the “damage to plant (100=total damage to plant; 0=no damage to plant), DIGSA” value (rate 250) was 90 and the “damage to plant (100=total damage to plant; 0=no damage to plant), DIGSA” value (rate 500) was 100. The “damage to plant (100=total damage to plant; 0=no damage to plant), ECHCG” value (rate 15) was 0, the “damage to plant (100=total damage to plant; 0=no damage to plant), ECHCG” value (rate 30) was 20 and the “damage to plant (100=total damage to plant; 0=no damage to plant), ECHCG” value (rate 60) was 20. For the same molecule, the “damage to plant (100=total damage to plant; 0=no damage to plant), ECHCG” value (rate 130) was 80, the “damage to plant (100=total damage to plant; 0=no damage to plant), ECHCG” value (rate 250) was 90 and the “damage to plant (100=total damage to plant; 0=no damage to plant), ECHCG” value (rate 500) was 100. The “damage to plant (100=total damage to plant; 0=no damage to plant), ELEIN” value (rate 15) was 0, the “damage to plant (100=total damage to plant; 0=no damage to plant), ELEIN” value (rate 30) was 0 and the “damage to plant (100=total damage to plant; 0=no damage to plant), ELEIN” value (rate 60) was 0. The “damage to plant (100=total damage to plant; 0=no damage to plant), ELEIN” value (rate 130) was 0, the “damage to plant (100=total damage to plant; 0=no damage to plant), ELEIN” value (rate 250) was 0 and the “damage to plant (100=total damage to plant; 0=no damage to plant), ELEIN” value (rate 500) was 0. The “damage to plant (100=total damage to plant; 0=no damage to plant), EPHHL” value (rate 15) was 0, the “damage to plant (100=total damage to plant; 0=no damage to plant), EPHHL” value (rate 30) was 0 and the “damage to plant (100=total damage to plant; 0=no damage to plant), EPHHL” value (rate 60) was 0. The “damage to plant (100=total damage to plant; 0=no damage to plant), EPHHL” value (rate 130) was 0, the “damage to plant (100=total damage to plant; 0=no damage to plant), EPHHL” value (rate 250) was 0 and the “damage to plant (100=total damage to plant; 0=no damage to plant), EPHHL” value (rate 500) was 0. For the same molecule, the “damage to plant (100=total damage to plant; 0=no damage to plant), GLXMA” value (rate 15) was 0, the “damage to plant (100=total damage to plant; 0=no damage to plant), GLXMA” value (rate 30) was 0 and the “damage to plant (100=total damage to plant; 0=no damage to plant), GLXMA” value (rate 60) was 0. For the same molecule, the “damage to plant (100=total damage to plant; 0=no damage to plant), GLXMA” value (rate 130) was 0, the “damage to plant (100=total damage to plant; 0=no damage to plant), GLXMA” value (rate 250) was 0 and the “damage to plant (100=total damage to plant; 0=no damage to plant), GLXMA” value (rate 500) was 0. The “damage to plant (100=total damage to plant; 0=no damage to plant), IPOHE” value (rate 15) was 0, the “damage to plant (100=total damage to plant; 0=no damage to plant), IPOHE” value (rate 30) was 0 and the “damage to plant (100=total damage to plant; 0=no damage to plant), IPOHE” value (rate 60) was 0. For the same molecule, the “damage to plant (100=total damage to plant; 0=no damage to plant), IPOHE” value (rate 130) was 0, the “damage to plant (100=total damage to plant; 0=no damage to plant), IPOHE” value (rate 250) was 0 and the “damage to plant (100=total damage to plant; 0=no damage to plant), IPOHE” value (rate 500) was 0. The “damage to plant (100=total damage to plant; 0=no damage to plant), ORYSA” value (rate 15) was 0, the “damage to plant (100=total damage to plant; 0=no damage to plant), ORYSA” value (rate 30) was 0 and the “damage to plant (100=total damage to plant; 0=no damage to plant), ORYSA” value (rate 60) was 0. The “damage to plant (100=total damage to plant; 0=no damage to plant), ORYSA” value (rate 130) was 0, the “damage to plant (100=total damage to plant; 0=no damage to plant), ORYSA” value (rate 250) was 0 and the “damage to plant (100=total damage to plant; 0=no damage to plant), ORYSA” value (rate 500) was 0. The “damage to plant (100=total damage to plant; 0=no damage to plant), PANMI” value (rate 15) was 0, the “damage to plant (100=total damage to plant; 0=no damage to plant), PANMI” value (rate 30) was 0 and the “damage to plant (100=total damage to plant; 0=no damage to plant), PANMI” value (rate 60) was 0. For the same molecule, the “damage to plant (100=total damage to plant; 0=no damage to plant), PANMI” value (rate 130) was 0, the “damage to plant (100=total damage to plant; 0=no damage to plant), PANMI” value (rate 250) was 0 and the “damage to plant (100=total damage to plant; 0=no damage to plant), PANMI” value (rate 500) was 0. For the same molecule, the “damage to plant (100=total damage to plant; 0=no damage to plant), SETFA” value (rate 15) was 0, the “damage to plant (100=total damage to plant; 0=no damage to plant), SETFA” value (rate 30) was 0 and the “damage to plant (100=total damage to plant; 0=no damage to plant), SETFA” value (rate 60) was 10. The “damage to plant (100=total damage to plant; 0=no damage to plant), SETFA” value (rate 130) was 80, the “damage to plant (100=total damage to plant; 0=no damage to plant), SETFA” value (rate 250) was 90 and the “damage to plant (100=total damage to plant; 0=no damage to plant), SETFA” value (rate 500) was 90. The “damage to plant (100=total damage to plant; 0=no damage to plant), SORVU” value (rate 15) was 0, the “damage to plant (100=total damage to plant; 0=no damage to plant), SORVU” value (rate 30) was 0 and the “damage to plant (100=total damage to plant; 0=no damage to plant), SORVU” value (rate 60) was 0. The “damage to plant (100=total damage to plant; 0=no damage to plant), SORVU” value (rate 130) was 0, the “damage to plant (100=total damage to plant; 0=no damage to plant), SORVU” value (rate 250) was 0 and the “damage to plant (100=total damage to plant; 0=no damage to plant), SORVU” value (rate 500) was 0.
